Laboratory results reported in patent publication US20240148684A1, “COMPOUNDS AND METHODS FOR TREATING CONGENITAL ERYTHROPOIETIC PORPHYRIA” (RUTGERS, THE STATE UNIVERSITY OF NEW JERSEY, priority 2021, published 2024).
Blank lines part the entries; values can stand above or below the compound they belong to.

Tests used:
[1] = system: uro-I injected zebrafish larvae; test: Zebrafish CEP model, prophylaxis protocol (retinoid co-administered with uro-I injection); assay type: in vivo, Zebrafish (Danio rerio); conditions: 24 hours, vs DMSO; for porphyrin fluorescence in bones (operculum and vertebrae): 10 μM in E3 medium
Description: Techniques that can be used to perform the methods of the invention are described by Elenbaas, J. S., et al., FASEB, 2016, 30, 1798-1810; and Cunha, J. B., Scientific Reports, 2021, 11, 9601.
Validation and characterization of acitretin as a potential treatment for CEP was performed. Six dpf ABTL zebrafish larvae injected with uro-I were immediately transferred to 10 cm plastic dishes containing 10 μM acitretin or DMSO in E3 medium (prophylaxis protocol FIG. 2A) and incubated for 24 hours in the dark at 28.5° C. Porphyrin binding to bones and bone volume were analyzed by confocal microscopy as described above. Porphyrin excretion into the medium was quantified. Uro-I-injected larvae were transferred to 96-well plates, one larva/well, […] of […] acitretin or DMSO/well. Medium was collected after 24 hours and porphyrin was quantified as described previously.
(§1) Etretinate (Selleck Chemicals, Houston, TX) and tretinoin (Selleck Chemicals, Houston, TX) treatment was performed as described for acitretin. In addition to being used as prophylaxis, the therapeutic effect of acitretin was evaluated. Six dpf AB×TL zebrafish larvae were injected with Uro-I and 24 hours later they were transferred to E3 medium containing […] acitretin or DMSO. Porphyrin binding, excretion and bone volume were analyzed. Saos-2 cells were treated with […] acitretin or DMSO in medium containing MAC and Uro-I.

[2] = system: uro-I injected zebrafish larvae; test: Zebrafish CEP model, therapeutic protocol (acitretin 24 hours after uro-I injection); assay type: in vivo, Zebrafish (Danio rerio); conditions: acitretin from 24 hours after uro-I, further 24 hours
Description: as §1

[3] = system: uro-I injected zebrafish larvae; test: High throughput drug screening (Prestwick library) in zebrafish CEP model; assay type: in vivo, Zebrafish (Danio rerio); conditions: 24 h, visual analysis vs DMSO-treated larvae, drug tested individually
Description: Unbiased high throughput drug screening was performed using the Prestwick library (Prestwick Chemical), which consists of 1,280 small molecules chosen by the manufacturer for their bioavailability and safety. […] Zebrafish E3 medium ([…]) was transferred to a 96-well half area imaging plate (Corning, cat. n. 3880) using a Multidrop dispenser (ThermoFisher Scientific). Compounds ([…] of 2 mM stock) were added to the wells using a multichannel plate handling robot (Biomek FX, Beckman Coulter Life Sciences). […] Control wells contained […] of DMSO.
Six dpf NHGRI-1 zebrafish larvae were injected retro-orbitally with approximately 2 nL of a solution of Uro-I (10 mM) and calcein (0.2% w/v). Immediately after injection, larvae were transferred to a 96-well test plate (two larvae in […] of E3 medium/well), including the DMSO control wells. Control larvae injected with the drug vehicle (dimethyl sulfoxide, DMSO) and calcein were transferred to E3 medium-only containing wells. Larvae were kept in the dark, at 28.5° C. After 24 h, they were anesthetized with tricaine-S, centrifuged at 500×g for two minutes and imaged using the ImageXpress Micro Cellular Imaging and Analysis System (Molecular Devices). Positive hits were selected based on visual identification of calcein signal increase and porphyrin signal decrease compared to DMSO-treated larvae. […]

[4] = system: zebrafish larvae; test: Acitretin dose-response curve, toxicity to zebrafish larvae; assay type: in vivo, Zebrafish (Danio rerio); conditions: dose-response 0.5-12.5 mM
[5] = system: Saos-2 cells; assay type: cell-based, human
Description: Saos-2 cells were purchased from ATCC. Cells were maintained in McCoy 5A medium supplemented with 15% FBS, penicillin/streptomycin, non-essential amino acids, Hepes and L-glutamine. To induce mineralization, cells were treated with mineralization activation cocktail (MAC), consisting of 5 mM b-glycerophosphate, […] ascorbic acid and 10 nM dexamethasone. Uro-I solution preparation and treatment of zebrafish larvae and Saos-2 cells
(§2) Saos-2 cells were plated in 12-well plates (1.5×10^5 cells/well) and allowed to attach overnight. Cells were then treated with Uro-I ([…] final concentration) or vehicle in medium containing MAC for 3 days. Experiments were conducted in a dark room and cells were kept shielded from light in a tissue culture incubator.
Etretinate (Selleck Chemicals, Houston, TX) and tretinoin (Selleck Chemicals, Houston, TX) treatment was performed as described for acitretin. In addition to being used as prophylaxis, the therapeutic effect of acitretin was evaluated. […] Porphyrin binding, excretion and bone volume were analyzed. […]
Cell mineralization was quantified by ARS (Sigma Aldrich St. Louis, MO) staining as described previously (Harper, E. et al. PLoS One 12, e0188192, doi:10.1371/journal.pone.0188192 (2017)), with minor modifications. […] ARS standard curve (from 2-0.02 mM) and samples were transferred in triplicate to a 96-well plate and absorbance was measured at 405 nm.

[6] = system: Saos-2 cells; test: Saos-2 immunoblotting of ER stress (BiP) and autophagy (LC3-II) markers; assay type: cell-based, human; conditions: acitretin with MAC and Uro-I, vs DMSO
Description: as §2, §1
Saos-2 cells were lysed in ice cold RIPA buffer (Sigma Aldrich, St. Louis, MO) with protease inhibitor cocktail (Thermo Scientific, Waltham, MA) and scraped. Whole cell lysate was kept in the dark until reducing SDS-PAGE sample buffer was added. Immunoblotting, band densitometry and mass spectrometry were conducted as described previously (Maitra, D. et al. Cell Mol Gastroenterol Hepatol 8, 659-682 e651, doi:10.1016/j.jcmgh.2019.05.010 (2019); and Maitra, D. et al. J Biol Chem 290, 23711-23724, doi:10.1074/jbc.M114.636001 (2015)). […]

[7] = system: Saos-2 cells; assay type: cell-based, human; remark: listed apart in the source
Description: as §2, §1
Saos-2 cells RNA was extracted using RNeasy mini kit (Qiagen, Catalog #: 74104). and gene expression was carried using the RT^2 Profiler PCR Array for human cellular stress responses (Qiagen, Catalog #: PAHS-019ZA) following manufacturer's instructions. A previously described qPCR (Elenbaas, J. S. et al. Gastroenterology 154, 1625-1629 e1628, doi:10.1053/j.gastro.2018.01.024 (2018)) was performed for COL1A1 and SERPINH1 (IDT Integrated DNA Technologies, PrimeTime assay ID Hs.PT.58.15517795 and Hs.PT.56a.26865778, respectively).

[8] = system: zebrafish larvae; conditions: in vivo
Description: Uro-I (uroporphyrin-I dihydrochloride; Frontier Scientific, Catalog #: U830-1) was initially resuspended in 0.1M NaOH and the pH was adjusted to neutral using 0.2 M Na2HPO4. Six days post fertilization (dpf), ABTL zebrafish larvae were injected via the retro-orbital route with approximately 3 nL of 7.2 mM Uro-I solution and control larvae were injected with vehicle (0.1M NaOH in 0.2M Na2HPO4). After injection, larvae were immediately transferred to Petri dishes wrapped with heavy duty aluminum foil and kept in a dark incubator, at 28.5° C., for 24 h. Where indicated, 7 dpf larvae were injected with approximately 2 nL of 0.2% w/v calcein (Sigma, Catalog #: C0875) 2 h prior to imaging.
Seven dpf AB×TL zebrafish larvae were anesthetized with tricaine-S (Syndel) and immobilized in 0.5% low melt agarose. Fluorescent z-series were captured using an Olympus FV500 confocal microscope (10× objective, confocal aperture of 300 mm) with an optical thickness of 10 mm and z-step size of 10 mm. Calcein was excited with a 488 nm argon laser and emission was captured between 505 and 525 nm. Porphyrin was excited with a 405 nm laser diode and emission was captured above 560 nm. Three-dimensional image reconstruction and quantification of fluorescent signal and bone volume were performed using Imaris 3D visualization and analysis software v7.7 (Bitplane).

[9] = acitretin in uro-I treated cells

Structure (SMILES): CCOC(=O)/C=C(C)/C=C/C=C(C)/C=C/c1c(C)cc(OC)c(C)c1C [etretinate]
porphyrin fluorescence in bones (operculum and vertebrae) [1]: did not demonstrate significant activity

Structure (SMILES): COc1cc(C)c(/C=C/C(C)=C/C=C/C(C)=C/C(=O)O)c(C)c1C [acitretin]
porphyrin fluorescence in bones (operculum and vertebrae) [1]: significantly reduced
operculum volume (bone volume) [1]: no effect
uro-I excretion into the medium [1]: increased
bone porphyrin fluorescence [2]: did not decrease
operculum volume [2]: increased
uro-I excretion to the medium [2]: increased
uro-I accumulation in bones (screening hit) [3]: decreased uro-I accumulation in bones
toxicity to zebrafish larvae [4]: without being toxic
uro-I-mediated loss of mineralization (ARS staining) ([5]; 10 mM acitretin in medium containing MAC and Uro-I): did not prevent
BiP level (ER stress response) [6]: reducing BiP level
LC3-II (autophagic flux) [6]: reducing LC3-II
SOD3 downregulation [7, 9]: 3.8 fold
Upregulation of COL1A1 [7, 9]: 1.7 ×
Upregulation of SERPINH1 [7, 9]: 5.4 ×

mineralization (ARS staining) [5]: decreased significantly
HSPA5 expression increase [7]: 2.1 ×
SERPINH1 expression decrease [7]: 3.3 ×
SOD3 expression increase [7]: 2.8 ×
reduction in COL1A1 expression [7]: 90%
operculum and 4th vertebra volume [8]: significantly decreased
Structure (SMILES): Cl.Cl.O=C(O)CCC1=C(CC(=O)O)c2cc3nc(cc4[nH]c(cc5[nH]c(cc1n2)c(CC(=O)O)c5CCC(=O)O)c(CC(=O)O)c4CCC(=O)O)C(CC(=O)O)=C3CCC(=O)O [Uro-I, uroporphyrin-I dihydrochloride]

Structure (SMILES): CC1=C(/C=C/C(C)=C/C=C/C(C)=C/C(=O)O)C(C)(C)CCC1 [tretinoin, all trans-retinoic acid]
porphyrin fluorescence in bones (operculum and vertebrae) [1]: significantly reduced
operculum volume (bone volume) [1]: did not prevent loss in bone volume
